According to ChEMBL document CHEMBL4321788, “Rational Design of Multitarget-Directed Ligands: Strategies and Emerging Paradigms” (J Med Chem, 2019):

Assays:
Rattus norvegicus = test: Antinociceptive activity in Wistar rat model of acetic-acid induced nociception pain assessed as reduction in writhes by measuring reduction in hind limb extension at 0.01 mmol/0.1kg, ip pretreated for 30 min followed by acetic-acid treatment and measured every 5 mins for 30 mins relative to control; type: functional; parameters: scale not given: the % may be the effect or the level left
[1] = target: Histamine H1 receptor (Cavia porcellus) (UniProt P31389); test: Binding affinity to histamine H1 receptor in guinea pig ileum incubated up to 20 mins; type: tissue-based
Histamine H1 receptor (Cavia porcellus), sequence (P31389 whole entry): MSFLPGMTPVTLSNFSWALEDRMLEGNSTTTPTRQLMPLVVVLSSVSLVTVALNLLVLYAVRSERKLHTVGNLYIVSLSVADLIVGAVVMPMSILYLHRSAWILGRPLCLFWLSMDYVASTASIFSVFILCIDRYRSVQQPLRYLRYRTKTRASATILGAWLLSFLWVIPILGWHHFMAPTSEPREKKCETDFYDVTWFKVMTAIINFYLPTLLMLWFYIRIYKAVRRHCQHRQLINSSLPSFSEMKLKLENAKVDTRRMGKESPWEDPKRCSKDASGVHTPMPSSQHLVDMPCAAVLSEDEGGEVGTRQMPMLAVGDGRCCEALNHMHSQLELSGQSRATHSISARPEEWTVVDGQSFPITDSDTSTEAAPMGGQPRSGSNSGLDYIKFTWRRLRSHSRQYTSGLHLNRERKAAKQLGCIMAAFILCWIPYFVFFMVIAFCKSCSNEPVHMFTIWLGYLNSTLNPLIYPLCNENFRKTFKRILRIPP

[2] = target: Histamine H2 receptor (Cavia porcellus) (UniProt P47747); test: Binding affinity to histamine H2 receptor in guinea pig right atrium
Histamine H2 receptor (Cavia porcellus), sequence (P47747 whole entry): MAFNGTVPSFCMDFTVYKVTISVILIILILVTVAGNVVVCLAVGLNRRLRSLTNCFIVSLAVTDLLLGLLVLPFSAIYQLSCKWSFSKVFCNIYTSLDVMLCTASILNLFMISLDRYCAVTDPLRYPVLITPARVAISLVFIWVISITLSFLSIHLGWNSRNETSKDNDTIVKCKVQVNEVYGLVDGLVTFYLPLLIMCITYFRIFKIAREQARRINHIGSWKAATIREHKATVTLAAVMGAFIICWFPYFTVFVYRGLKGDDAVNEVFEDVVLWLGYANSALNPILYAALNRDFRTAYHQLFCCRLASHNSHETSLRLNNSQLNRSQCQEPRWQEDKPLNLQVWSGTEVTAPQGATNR

Homo sapiens = species: Homo sapiens; test: Antioxidant activity in human M17 cell lysate assessed as trolox equivalents of ABTS radical scavenging activity incubated up to 10 mins; type: functional, subcellular
Lipoxygenase = Lipoxygenase (Glycine max, UniProt Q39829); test: Inhibition of soya bean LOX assessed as reduction in formation of 13-hydroperoxylinoleic acid using sodium linoleate as substrate
[3] = target: Sodium-dependent serotonin transporter (Rattus norvegicus, UniProt P31652); test: Inhibition of rat synaptosome SERT
Sodium-dependent serotonin transporter, sequence (P31652 whole entry): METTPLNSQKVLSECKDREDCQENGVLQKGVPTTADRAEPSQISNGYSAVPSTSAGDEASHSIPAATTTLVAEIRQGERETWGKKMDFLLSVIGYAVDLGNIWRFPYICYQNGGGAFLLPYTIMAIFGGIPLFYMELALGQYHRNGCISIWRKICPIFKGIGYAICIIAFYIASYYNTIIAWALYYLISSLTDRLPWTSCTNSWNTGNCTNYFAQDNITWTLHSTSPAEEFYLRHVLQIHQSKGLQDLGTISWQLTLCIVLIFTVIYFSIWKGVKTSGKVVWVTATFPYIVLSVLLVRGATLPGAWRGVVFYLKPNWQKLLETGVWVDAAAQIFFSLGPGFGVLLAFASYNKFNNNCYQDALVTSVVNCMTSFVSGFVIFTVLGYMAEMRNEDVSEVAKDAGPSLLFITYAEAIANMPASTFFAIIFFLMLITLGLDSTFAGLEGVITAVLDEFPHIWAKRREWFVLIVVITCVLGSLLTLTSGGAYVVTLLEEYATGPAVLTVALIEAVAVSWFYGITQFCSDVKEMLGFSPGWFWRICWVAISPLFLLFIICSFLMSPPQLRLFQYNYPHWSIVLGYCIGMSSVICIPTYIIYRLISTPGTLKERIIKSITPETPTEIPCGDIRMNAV

[4] = target: Amyloid-beta precursor protein (Homo sapiens, UniProt P05067); test: Inhibition of self-induced aggregation of amyloid beta (1 to 42) (unknown origin) incubated for 24 hrs by TEM analysis
Amyloid-beta precursor protein, sequence (P05067 whole entry): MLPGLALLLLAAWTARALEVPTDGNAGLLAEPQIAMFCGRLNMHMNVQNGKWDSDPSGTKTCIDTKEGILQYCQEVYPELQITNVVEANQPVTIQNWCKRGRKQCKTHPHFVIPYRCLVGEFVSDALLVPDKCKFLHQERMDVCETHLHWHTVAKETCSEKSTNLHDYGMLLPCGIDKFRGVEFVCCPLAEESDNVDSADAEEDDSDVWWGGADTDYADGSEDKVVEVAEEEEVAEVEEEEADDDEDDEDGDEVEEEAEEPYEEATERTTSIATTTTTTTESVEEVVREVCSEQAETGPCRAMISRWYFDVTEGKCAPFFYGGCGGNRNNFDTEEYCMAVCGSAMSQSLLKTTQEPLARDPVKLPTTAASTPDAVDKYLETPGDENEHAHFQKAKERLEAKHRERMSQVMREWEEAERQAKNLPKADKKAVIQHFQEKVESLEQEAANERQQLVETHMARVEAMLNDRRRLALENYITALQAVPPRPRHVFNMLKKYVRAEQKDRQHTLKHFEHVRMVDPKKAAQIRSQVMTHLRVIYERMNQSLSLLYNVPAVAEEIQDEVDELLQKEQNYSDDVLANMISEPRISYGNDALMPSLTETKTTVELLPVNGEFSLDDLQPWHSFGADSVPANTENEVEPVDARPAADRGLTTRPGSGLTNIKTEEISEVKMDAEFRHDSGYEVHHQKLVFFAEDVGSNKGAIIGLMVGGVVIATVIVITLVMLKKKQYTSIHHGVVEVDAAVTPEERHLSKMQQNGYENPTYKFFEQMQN

Histamine H3 receptor = Histamine H3 receptor (Homo sapiens, UniProt Q9Y5N1); test: Antagonist activity at human histamine H3 receptor stably expressed in HEK293 cells assessed as cAMP accumulation incubated for 60 mins by Eu-cAMP tracer based TR-FRET assay; type: functional, cell-based
Histamine H3 receptor, sequence (Q9Y5N1 whole entry): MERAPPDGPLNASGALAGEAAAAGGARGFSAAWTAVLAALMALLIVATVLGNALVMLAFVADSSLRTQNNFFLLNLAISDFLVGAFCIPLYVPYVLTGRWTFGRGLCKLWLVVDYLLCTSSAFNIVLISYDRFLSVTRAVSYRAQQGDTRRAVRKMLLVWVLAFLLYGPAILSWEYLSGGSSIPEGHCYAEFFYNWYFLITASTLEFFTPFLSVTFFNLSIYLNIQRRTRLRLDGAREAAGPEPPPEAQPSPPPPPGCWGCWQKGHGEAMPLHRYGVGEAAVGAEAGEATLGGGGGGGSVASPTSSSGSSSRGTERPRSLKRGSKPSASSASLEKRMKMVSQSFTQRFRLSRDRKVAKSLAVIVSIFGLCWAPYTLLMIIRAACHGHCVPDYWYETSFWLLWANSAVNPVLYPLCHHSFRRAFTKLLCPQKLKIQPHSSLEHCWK

Substance-P receptor = Substance-P receptor (Homo sapiens, UniProt P25103); test: Displacement of [3H]Sar SP from human NK1 receptor expressed in CHO cells membranes; type: cell membranes
Substance-P receptor, sequence (P25103 whole entry): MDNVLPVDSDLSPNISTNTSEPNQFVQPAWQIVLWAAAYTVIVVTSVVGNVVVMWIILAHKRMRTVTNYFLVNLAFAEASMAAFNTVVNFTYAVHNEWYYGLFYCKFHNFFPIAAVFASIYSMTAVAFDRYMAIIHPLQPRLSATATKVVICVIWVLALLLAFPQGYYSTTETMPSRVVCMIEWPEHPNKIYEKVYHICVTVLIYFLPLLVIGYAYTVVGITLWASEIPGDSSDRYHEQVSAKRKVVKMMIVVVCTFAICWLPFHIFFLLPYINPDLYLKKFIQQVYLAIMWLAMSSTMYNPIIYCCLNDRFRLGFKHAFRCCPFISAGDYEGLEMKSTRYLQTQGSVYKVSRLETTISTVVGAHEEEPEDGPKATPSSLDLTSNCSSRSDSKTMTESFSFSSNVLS

Neuromedin-K receptor = target: T1, Neuromedin-K receptor (Homo sapiens, UniProt P29371); test: Displacement of [125I][MePhe]NKB from human NK3 receptor expressed in CHO cells membranes; type: cell membranes
T1 sequence (P29371 whole entry): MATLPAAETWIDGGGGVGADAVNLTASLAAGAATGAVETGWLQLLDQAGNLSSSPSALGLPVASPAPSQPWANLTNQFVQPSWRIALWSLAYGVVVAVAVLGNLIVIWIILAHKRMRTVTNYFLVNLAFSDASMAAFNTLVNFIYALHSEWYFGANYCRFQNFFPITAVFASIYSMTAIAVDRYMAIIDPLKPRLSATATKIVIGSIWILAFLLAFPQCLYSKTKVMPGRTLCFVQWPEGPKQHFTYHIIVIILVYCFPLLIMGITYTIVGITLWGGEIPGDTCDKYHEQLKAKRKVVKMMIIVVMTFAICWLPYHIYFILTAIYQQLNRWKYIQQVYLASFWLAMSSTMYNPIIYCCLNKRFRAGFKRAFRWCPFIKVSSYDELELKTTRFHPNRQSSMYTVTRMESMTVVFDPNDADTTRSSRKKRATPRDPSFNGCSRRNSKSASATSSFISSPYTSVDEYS

Substance-K receptor = target: T2, Substance-K receptor (Homo sapiens, UniProt P21452); test: Displacement of [3H]NKA from human NK2 receptor expressed in CHO cells membranes; type: cell membranes
T2 sequence (P21452 whole entry): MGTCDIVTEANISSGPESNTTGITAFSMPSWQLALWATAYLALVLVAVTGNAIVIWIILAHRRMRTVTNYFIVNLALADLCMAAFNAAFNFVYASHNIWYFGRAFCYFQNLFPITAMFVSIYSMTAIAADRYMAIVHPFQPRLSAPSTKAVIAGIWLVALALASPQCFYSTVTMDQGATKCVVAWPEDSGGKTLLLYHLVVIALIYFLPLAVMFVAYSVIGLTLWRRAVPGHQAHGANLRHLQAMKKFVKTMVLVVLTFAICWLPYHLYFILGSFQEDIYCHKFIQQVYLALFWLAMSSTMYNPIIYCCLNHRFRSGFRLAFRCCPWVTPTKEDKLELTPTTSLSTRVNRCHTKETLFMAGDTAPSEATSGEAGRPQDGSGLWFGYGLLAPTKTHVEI

[5] = Inhibition of ROS generation in human MC65 cells assessed as reduction in tetracycline removal-induced ROS level incubated for 48 hrs by DCFH-DA staining based flow cytometric analysis; type: functional, cell-based; details: MC65, 48 h
[6] = Neuroprotective activity against tetracycline removal-induced cytotoxicity in human MC65 cells assessed as increase in cell viability incubated for 72 hrs by MTT assay; type: functional, cell-based; details: MC65, 72 h
Acetylcholinesterase = target: T3, Acetylcholinesterase (Mus musculus, UniProt P21836); test: Inhibition of mouse brain AChE
T3 sequence (P21836 whole entry): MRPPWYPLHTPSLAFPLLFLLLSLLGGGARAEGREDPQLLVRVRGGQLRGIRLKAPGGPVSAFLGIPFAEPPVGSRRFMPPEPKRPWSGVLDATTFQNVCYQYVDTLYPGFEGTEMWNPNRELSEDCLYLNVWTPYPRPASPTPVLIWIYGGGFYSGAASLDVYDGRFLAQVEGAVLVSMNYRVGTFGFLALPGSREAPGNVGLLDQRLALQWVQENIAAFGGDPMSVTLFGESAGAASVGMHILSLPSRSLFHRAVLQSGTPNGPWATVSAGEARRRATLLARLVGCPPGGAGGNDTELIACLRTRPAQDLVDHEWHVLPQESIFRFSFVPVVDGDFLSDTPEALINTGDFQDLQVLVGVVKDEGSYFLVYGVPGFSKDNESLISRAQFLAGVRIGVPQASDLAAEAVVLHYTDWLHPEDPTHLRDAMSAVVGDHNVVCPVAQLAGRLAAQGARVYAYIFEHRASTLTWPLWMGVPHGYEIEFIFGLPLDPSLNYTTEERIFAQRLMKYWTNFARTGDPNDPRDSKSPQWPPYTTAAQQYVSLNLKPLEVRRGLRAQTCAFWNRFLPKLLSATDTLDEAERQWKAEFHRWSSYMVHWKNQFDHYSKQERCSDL

CC(=O)Nc1ccc(O)cc1 [ACETAMINOPHEN]
Activity (Rattus norvegicus): 66%

COc1ccc(CN(CCN(C)CCCCCCN/C(=N/C#N)NCCCOc2cccc(CN3CCCCC3)c2)c2ccccn2)cc1
pKb [1]: 8.42
pKb [2]: 6.43

CN(C)c1ccc(O)c(CNc2cccc3ccc(CO)nc23)c1
Activity (Homo sapiens): 1.41

CN(CCCNC(=O)NCCCOc1ccc(CN2CCCCC2)cc1)CCC(c1ccc(F)cc1)c1ccccn1 (stereo not drawn)
pKb [2]: 6.68

O=C(O)/C=C/c1cccc(Oc2ccccc2)c1
IC50 (Lipoxygenase): 89 µM

CCN(C)C(=O)Oc1cccc([C@H](C)N(C)C)c1 [RIVASTIGMINE]
IC50 [3]: > 1000 nM

CCN(CC)CCCOc1ccc(-n2ccc(=O)c(O)c2C)cc1
IC50 [4]: 17.2 µM
IC50 (Histamine H3 receptor): 12.8 nM

CC(=O)Nc1cccc(OC(=O)/C=C/c2cccc(Oc3ccccc3)c2)c1
Activity (Rattus norvegicus): 91 - 98.1%
IC50 (Lipoxygenase): 0.34 µM

CNC(=O)C[C@H]1CCCN(C2CCN(CC[C@@H](/C(CN(C)C(=O)c3cc(Cl)cc(Cl)c3)=N/OC)c3ccc(Cl)c(Cl)c3)CC2)C1
Ki (Substance-P receptor): 1.3 nM
Ki (Neuromedin-K receptor): 0.3 nM
Ki (Substance-K receptor): 0.4 nM

COc1ccc2[nH]cc(CCNC(=O)CC(=O)CCc3ccc(O)cc3)c2c1
IC50 [5]: 68 nM
EC50 [6]: 27.6 nM

CNCCC(Oc1ccc(C(F)(F)F)cc1)c1ccccc1 (stereo not drawn) [FLUOXETINE]
IC50 (Acetylcholinesterase): > 10 µM

Cc1c(C)c2c(c(C)c1O)CCC(C)(C(=O)O)O2 (stereo not drawn)
Activity (Homo sapiens): 1
